Experimental data from article doi:10.1101/2020.08.18.255380v4 (biorxiv, 2021).

What was measured:
DalS [1] = target: DalS (Salmonella enterica, UniProt Q8ZPA3); experiment: fluorescence; assay type: binding
DalS [2] = target: DalS (Salmonella enterica, UniProt Q8ZPA3, A147S/A76D/D216E/F117L/T197Y/Y148Q); experiment: biochemical
DalS [3] = target: DalS (Salmonella enterica, UniProt Q8ZPA3, A147S/F117L/Y148Q); experiment: biochemical
DalS [4] = target: DalS (Salmonella enterica, UniProt Q8ZPA3, Y148Q); experiment: biochemical
DalS [5] = target: DalS (Salmonella enterica, UniProt Q8ZPA3, A147S/A76D/D216E/F117L/S60R/Y148Q); experiment: biochemical
DalS [6] = target: DalS (Salmonella enterica, UniProt Q8ZPA3, F117L); experiment: biochemical
DalS [7] = target: DalS (Salmonella enterica, UniProt Q8ZPA3, A147S); experiment: biochemical

| SMILES | Kd (DalS [1]) [µM] | Kd (DalS [2]) [µM] | Kd (DalS [3]) [µM] | Kd (DalS [4]) [µM] | Kd (DalS [5]) [µM] | Kd (DalS [6]) [µM] | Kd (DalS [7]) [µM] |
| --- | --- | --- | --- | --- | --- | --- | --- |
| NCC(=O)O [glycine] | 5 ± 1 | 40 ± 2 | – | – | – | – | – |
| N[C@H](CO)C(=O)O [D-serine] | 12 ± 1 | 4.8 ± 0.2 | 43 ± 1 | 101 ± 3 | 70 ± 17 | 3.7 ± 0.2 | 1.8 ± 0.4 |
| C[C@@H](N)C(=O)O [D-alanine] | 5.4 ± 0.4 | 14 ± 1 | – | – | – | – | 0.62 ± 0.03 |
